# Measurements taken from patent US20180118707A1, “BETA-NAPHTHOISOFLAVONES, COMPOSITIONS CONTAINING, AND USES OF, SAME” (Thesan Pharmaceuticals, Inc., priority 2015, published 2018).
# Assays:
# CYP1A1 enzyme = experiment: Induction of CYP1A1 enzyme in human cultured sebocytes, EROD assay; type: cell-based; details: 10 uM, 24 h
# Experimental: (§1) Cells are seeded at between 1×10^4 and 2.5×10^4 cells/well in a 96-well microtitre plate. […] 100 μl of medium is then transferred to a fresh black 96-well plate and 130 μl methanol added. The formation of resorufin is quantified by fluorometry with a fluorescence plate reader. Fluorescence is determined at λex 570 nm and λem 590 nm. The amount of resorufin is calculated from a standard curve generated using 0 to 1 μM resorufin in water at ½ log dilutions. The remaining (i.e. all cells present at the beginning of analysis, since only supernatant is taken to assay EROD) live cells are subsequently utilized for the MU cytotoxicity assay. MU is made up in serum-free medium at 5 mg/mi. then added to the cells giving a final concentration of 10% (0.5 mg/ml MIT final) then incubated for 2 h. The medium is carefully removed, then MIT formazan is solubilized by adding 200 μl of DMSO and subsequently mixed on a plate shaker. The absorbance is measured spectrophotometrically at 550 nm and background absorbance at […] is subtracted. A standard curve generated using MTT formazan (dissolved in DMSO) from O—200 μM (0, 2, 5, 10, 20, 50, 100, 200 μM) is used to calculate the final experimental values which are then expressed as (μmol resorufin/mol MTT formazan) or as fold-induction compared to solvent.
# CYP1A1 = experiment: as above; type: cell-based; details: cultured sebocytes, probe 7-ethoxyresorufin (8 μM)
# Experimental: as §1
# HepG2 cells = experiment: MTT cytotoxicity assay in HepG2 cells after EROD; type: cell-based, human
# Experimental: The formation of resorufin is quantified by fluorometry with a fluorescence plate reader. Fluorescence is determined at λex 570 nm and λem 590 nm. The amount of resorufin is calculated from a standard curve generated using 0 to 1 μM resorufin in water at ½ log dilutions. The remaining (i.e. all cells present at the beginning of analysis, since only supernatant is taken to assay EROD) live cells are subsequently utilized for the MIT cytotoxicity assay. MTT is made up in serum-free medium at 5 mg/ml. then added to the cells giving a final concentration of 10% (0.5 mg/ml MTT final) then incubated for 2 h. The medium is carefully removed, then MTT formazan is solubilized by adding 200 μl of DMSO and subsequently mixed on a plate shaker. The absorbance is measured spectra photometrically at 550 nm and background absorbance at 690 nm is subtracted.
# [1] = target: T1, Aryl Hydrocarbon Receptor (Homo sapiens, UniProt P35869); experiment: AhR activation luciferase reporter in Hep G2-plox-XRE TATA-Luc cells; type: cell-based; details: treatment for 24 h with 1-10 uM
# T1 construct: endogenous in cells; host or cells: Normal human keratinocytes (NHK) transduced with the lentivector plox-XRE TATA-Luc (reporter only)
# T1 sequence (P35869 11-848): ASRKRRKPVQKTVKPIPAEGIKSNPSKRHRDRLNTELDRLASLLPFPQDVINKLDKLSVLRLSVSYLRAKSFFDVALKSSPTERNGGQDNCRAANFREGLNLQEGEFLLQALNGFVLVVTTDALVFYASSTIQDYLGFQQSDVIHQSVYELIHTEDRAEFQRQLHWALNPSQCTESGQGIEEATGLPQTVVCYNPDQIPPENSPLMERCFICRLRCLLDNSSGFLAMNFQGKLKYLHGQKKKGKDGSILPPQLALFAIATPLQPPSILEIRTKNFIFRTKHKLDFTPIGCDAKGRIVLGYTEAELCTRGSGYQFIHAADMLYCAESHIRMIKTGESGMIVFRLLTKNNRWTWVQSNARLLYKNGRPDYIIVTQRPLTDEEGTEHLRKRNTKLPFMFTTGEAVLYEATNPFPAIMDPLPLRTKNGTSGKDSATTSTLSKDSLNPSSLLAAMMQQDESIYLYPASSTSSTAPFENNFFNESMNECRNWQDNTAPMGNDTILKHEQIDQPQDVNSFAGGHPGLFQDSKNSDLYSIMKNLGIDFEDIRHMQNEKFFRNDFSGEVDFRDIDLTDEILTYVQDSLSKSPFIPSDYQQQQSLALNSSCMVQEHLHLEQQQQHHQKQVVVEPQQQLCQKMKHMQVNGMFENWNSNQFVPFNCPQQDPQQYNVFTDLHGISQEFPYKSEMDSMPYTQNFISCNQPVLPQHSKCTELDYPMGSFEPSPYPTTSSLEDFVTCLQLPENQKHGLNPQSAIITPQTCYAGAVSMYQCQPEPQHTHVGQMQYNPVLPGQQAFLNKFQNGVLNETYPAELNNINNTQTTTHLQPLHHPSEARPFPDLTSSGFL
# Experimental: AhR activation is measured in HEP G2 cells (hepatocytes, Hep G2 is a human liver carcinoma cell line) stably transfected with the lentivector plox-XRE TATA-Luc. The Hep G2 cells are cultured in a growing media consisting of DM EM (Glbco)+10% fetal bovine serum+penicillin+streptomycin. At D0, the Hep G2 cells are seeded into 12-well plates in proportions of approximately 30,000 cells/cm^2. After 24 h, the medium is replaced with fresh medium and the cells are transduced with the lentivector plox-XRE TATA-Luc. After 48 h, the cells are subcultured and maintained in culture, and tested for their reactivity to 3-phenyl-1H-benzo[f]chromen-1-one. The tests are carried out using the luciferase reporter assay system kit from Promega. At D0, the cells are seeded at a density of approximately 60% confluence, and then treated, at D1, with the test substance diluted to various concentrations in the appropriate culture medium. At D2, the cells are lysed in CLB buffer, and the lysate is clarified by centrifugation for 5 min at 10 000 g. The luciferase activity is measured in 20 microliters of lysate as recommended by the supplier, using the luminoskan luminometer (Thermo). […] Data is processed and ECso's can be calculated from standard data monitoring software.
compound,measurement,setting,value
"O=c1cc(-c2ccccc2)oc2ccc3ccccc3c12 [D, 3-Phenyl-1H-benzo[f]chromen-1-one, reference compound]",% change vs. TCDD EROD (Sebs) at 10 uM,CYP1A1 enzyme,17%
same,EC50 at 24 h,CYP1A1,1 µM
same,Toxicity threshold,HepG2 cells,>50 µM
same,induction of the luciferase activity,[1],significant induction
